US9278996B2, “Dolastatin-10 derivative, method of producing the same and anticancer drug composition containing the same” (CELLTRION, INC., priority 2012, dated 2016)

The compounds below were run on breast cancer (BT-474) (assay: Anticancer activity assay (WST-8 cell growth), BT-474). Details: Homo sapiens, BT-474, 96 h, read-out: IC50 (nM) BT-474.
Assay type: cell-based
Experimental: The compounds of the present invention were assayed for inhibitory activity against 7 cancer cell lines as breast cancer (BT-474), human epithelial cancer (A-431), non-small cell lung cancer (NCI-H460), colon cancer (HT-29), colon cancer (SW-620), breast cancer (MDA-MB-231) and breast cancer (MCF-7).
Briefly, a suspension of each cancer cell line was serially diluted, and plated at a density of 2˜3×10^3 cells/well into 96-well microplates, followed by incubation at 37° C. for 4 day in a 5% CO2 atmosphere. Cell growth in a monolayer was measured using WST-8 reagemt (Dojindo, Japan).
IC50 values of the compounds against the cancer cell lines were calculated as compound concentrations at which the cells were grown by 50% OD of the control.

Structure (SMILES) | IC50 [nM]
CC[C@H](C)[C@@H]([C@@H](CC(=O)N1C[C@H](OC)C[C@@H]1[C@H](OC)[C@@H](C)C(=O)N[C@H](C)C(=O)c1ccc(OC)cc1)OC)N(C)C(=O)[C@@H](NC(=O)[C@@H](NC)C(C)C)C(C)C [Compound I-15, (S)—N-((3R,4S,5S)-3-methoxy-1-((2R,4R)-4-methoxy-2-((1R,2R)-1-methoxy-3-(((R)-1-(4-methoxyphenyl)-1-oxopropan-2-yl)amino)-2-methyl-3-oxopropyl)pyrrolidin-1-yl)-5-methyl-1-oxoheptan-4-yl)-N,3-dimethyl-2-((S)-3-methyl-2-(methylamino)butaneamido)butanamide] | 0.51
CC[C@H](C)[C@@H]([C@@H](CC(=O)N1C[C@H](OC)C[C@H]1[C@H](OC)[C@@H](C)C(=O)NC/C(=N/O)c1ccc(OC)cc1F)OC)N(C)C(=O)[C@@H](NC(=O)[C@@H](NC)C(C)C)C(C)C [Compound I-25] | 0.41
CC[C@H](C)[C@@H]([C@@H](CC(=O)N1C[C@H](OC)C[C@H]1[C@H](OC)[C@@H](C)C(=O)NCCc1ccccn1)OC)N(C)C(=O)[C@@H](NC(=O)[C@@H](NC)C(C)C)C(C)C [Compound I-38, (2S)—N-((3R,4S)-3-methoxy-1-((2S,4R)-4-methoxy-2-((1R,2R)-1-methoxy-2-methyl-3-oxo-3-((2-(pyridin-2-yl)ethyl)amino)propyl)pyrrolidin-1-yl)-5-methyl-1-oxoheptan-4-yl)-N,3-dimethyl-2-((S)-3-methyl-2-(methylamino)butaneamido)butanamide] | 1.32
CC[C@H](C)[C@@H]([C@@H](CC(=O)N1C[C@@H](N)C[C@H]1[C@H](OC)[C@@H](C)C(=O)NCCc1c(F)cccc1F)OC)N(C)C(=O)[C@@H](NC(=O)[C@H](C(C)C)N(C)C)C(C)C [Compound I-44, (2S)—N-((3R,4S)-1-((2S,4S)-4-amino-2-((1R,2R)-3-((2,6-difluorophenethyl)amino)-1-methoxy-2-methyl-3-oxopropyl)pyrrolidin-1-yl)-3-methoxy-5-methyl-1-oxoheptan-4-yl)-2-((S)-2-(dimethylamino)-3-methylbutaneamido)-N,3-dimethylbutanamide] | 0.17
CC[C@H](C)[C@@H]([C@@H](CC(=O)N1C[C@H](OC)C[C@H]1[C@H](OC)[C@@H](C)C(=O)NCC(=O)c1ccccc1C)OC)N(C)C(=O)[C@@H](NC(=O)[C@@H](NC)C(C)C)C(C)C [Compound I-28, (S)—N-((3R,4S,5S)-3-methoxy-1-((2S,4R)-4-methoxy-2-((1R,2R)-1-methoxy-2-methyl-3-oxo-3-((2-oxo-2-(o-tolyl)ethyl)amino)propyl)pyrrolidin-1-yl)-5-methyl-1-oxoheptan-4-yl)-N,3-dimethyl-2-((S)-3-methyl-2-(methylamino)butaneamido)butanamide] | 0.65
CC[C@H](C)[C@@H]([C@@H](CC(=O)N1C[C@H](OC)C[C@H]1[C@H](OC)[C@@H](C)C(=O)N[C@H](C)C(N)c1ccccc1)OC)N(C)C(=O)[C@@H](NC(=O)[C@H](C(C)C)N(C)C)C(C)C (mixture of isomers) [Compound I-36, (2S)—N-((3R,4S)-1-((2S)-2-((1R,2R)-3-(((2R)-1-amino-1-phenylpropan-2-yl)amino)-1-methoxy-2-methyl-3-oxopropyl)-4-methoxypyrrolidin-1-yl)-3-methoxy-5-methyl-1-oxoheptan-4-yl)-2-((S)-2-(dimethylamino)-3-methylbutaneamido)-N,3-dimethylbutanamide] | 0.51
CC[C@H](C)[C@@H]([C@@H](CC(=O)N1C[C@H](OC)CC1[C@H](OC)[C@@H](C)C(=O)NCC(=O)c1ccc(F)cc1C)OC)N(C)C(=O)[C@@H](NC(=O)[C@H](C(C)C)N(C)C)C(C)C (stereo partly drawn) [Compound I-26] | 0.79
CC[C@H](C)[C@@H]([C@@H](CC(=O)N1C[C@H](OC)C[C@H]1[C@H](OC)[C@@H](C)C(=O)NCC(=O)c1ccc(F)cc1)OC)N(C)C(=O)[C@@H](NC(=O)[C@@H](NC)C(C)C)C(C)C [Compound I-30] | 0.77
CC[C@H](C)[C@@H]([C@@H](CC(=O)N1C[C@H](OC)CC1[C@H](OC)[C@@H](C)C(=O)NCCc1cccc(F)c1)OC)N(C)C(=O)[C@@H](NC(=O)[C@@H](NC)C(C)C)C(C)C (stereo partly drawn) [Compound I-2] | 0.7
